Assay results reported in PubChem BioAssay AID1963873 (Molecular Pharmacology Branch, DTP, NCI, 2024).

Test system: 276233-004-R-J1-PDC KRAS spheroids with HUVEC/MSC, viability
Experiment: Anticancer human tumor 276233-004-R-J1-PDC patient-derived colon adenocarcinoma cell line growth inhibition [KRAS2]
Conditions: for IC50: curve of first compound; for viability, T/C: stronger effect = lower value
How it was run: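 KRAS-mutant tumor cells were grown as spheroids with HUVEC endothelial cells and human MSCs as stroma. Targeted agents were tested alone and with KRAS pathway inhibitors. Doses started at or near clinical Cmax, or 10 microM, descending half-log.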
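Further: cells exposed to agents for seven days before viability read.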
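Wherever viability, T/C is given: 100% = DMSO vehicle control wells and lower values mean fewer viable cells.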

Compound: CC(=O)OC12COC1CC(O)C1(C)C(=O)C(O)C3=C(C)C(OC(=O)C(O)C(NC(=O)OC(C)(C)C)c4ccccc4)CC(O)(C(OC(=O)c4ccccc4)C21)C3(C)C (stereo not given) + C=CC(=O)N1CCN(c2nc(OCC3CCCN3C)nc3c2CCN(c2cccc4cccc(C)c24)C3)CC1CC#N
- IC50 (second compound 0.0316 µM): > 3.16 µM
- IC50 (second compound 0.1 µM): > 3.16 µM
- IC50 (second compound 0.316 µM): > 3.16 µM
- IC50 (second compound 1 µM): > 3.16 µM
- IC50 (second compound 3.16 µM): > 3.16 µM
- viability, T/C (second compound 0.0316 µM, first compound 0.01 µM): 82.1%
- viability, T/C (second compound 0.0316 µM, first compound 0.0316 µM): 90.6%
- viability, T/C (second compound 0.0316 µM, first compound 0.1 µM): 103%
- viability, T/C (second compound 0.0316 µM, first compound 0.316 µM): 96%
- viability, T/C (second compound 0.0316 µM, first compound 1 µM): 112%
- viability, T/C (second compound 0.0316 µM, first compound 3.16 µM): 94.8%
- viability, T/C (second compound 0.1 µM, first compound 0.01 µM): 96.7%
- viability, T/C (second compound 0.1 µM, first compound 0.0316 µM): 96.3%
- viability, T/C (second compound 0.1 µM, first compound 0.1 µM): 76.4%
- viability, T/C (second compound 0.1 µM, first compound 0.316 µM): 86.8%
- viability, T/C (second compound 0.1 µM, first compound 1 µM): 91.5%
- viability, T/C (second compound 0.1 µM, first compound 3.16 µM): 95.5%
- viability, T/C (second compound 0.316 µM, first compound 0.01 µM): 97.8%
- viability, T/C (second compound 0.316 µM, first compound 0.0316 µM): 83.4%
- viability, T/C (second compound 0.316 µM, first compound 0.1 µM): 73.6%
- viability, T/C (second compound 0.316 µM, first compound 0.316 µM): 72.2%
- viability, T/C (second compound 0.316 µM, first compound 1 µM): 99%
- viability, T/C (second compound 0.316 µM, first compound 3.16 µM): 107%
- viability, T/C (second compound 1 µM, first compound 0.01 µM): 84.4%
- viability, T/C (second compound 1 µM, first compound 0.0316 µM): 79.3%
- viability, T/C (second compound 1 µM, first compound 0.1 µM): 75.8%
- viability, T/C (second compound 1 µM, first compound 0.316 µM): 71.3%
- viability, T/C (second compound 1 µM, first compound 1 µM): 93.3%
- viability, T/C (second compound 1 µM, first compound 3.16 µM): 98.2%
- viability, T/C (second compound 3.16 µM, first compound 0.01 µM): 103%
- viability, T/C (second compound 3.16 µM, first compound 0.0316 µM): 87.8%
- viability, T/C (second compound 3.16 µM, first compound 0.1 µM): 88.4%
- viability, T/C (second compound 3.16 µM, first compound 0.316 µM): 87.2%
- viability, T/C (second compound 3.16 µM, first compound 1 µM): 95.7%
- viability, T/C (second compound 3.16 µM, first compound 3.16 µM): 112%
